# Measurements reported in patent publication US20220409617A1, “Drug Formulations and Methods of Treatment for Metabolic Disorders” (The Regents of the University of California, priority 2019, published 2022).
# Legend:
# [1] = system: hepatic mitochondria; assay: Hepatic mitochondrial morphology (NADH/NADPH autofluorescence) after acute treatment; format: in vivo, mouse
# Protocol: To determine whether sphingolipid-like compound 893 also protects from ceramide-induced mitochondrial fragmentation in vivo, a cohort of mice with diet-induced obesity was analyzed. Male, C57BL/6J mice were fed a 45% kcal from fat rodent diet (HFD) or a standard chow diet (10% kcal from fat) for 22-26 weeks. Mitochondrial morphology was compared in freshly resected livers from vehicle- or sphingolipid-like compound 893-treated mice using NADH/NADPH autofluorescence and confocal microscopy. When evaluating mitochondrial morphology, light microscopy has two, significant advantages over electron microscopy: 1) the 3D architecture of the mitochondrial network is readily apparent, and 2) quantitative measurements of mitochondrial shape can be made in a large number of cells in an automated and unbiased manner using image analysis software (FIG. 11). […]
# MEFs were washed twice with PBS and fixed with 4% paraformaldehyde for 10 min at RT. […] NADH/NADPH autofluorescence was detected with 740 nm excitation and 450±50 nm detectors using a Mai Tai two-photon laser. Fluorescence microscopy was performed on a Zeiss LSM 780 confocal using a 63× oil objective with a […] numerical aperture (NA) or using a Nikon TE2000-S inverted epifluorescence microscope with a 100× oil objective (1.3 NA) and a Photometrics CoolSNAP ES2 monochrome CCD camera. […]
# [2] = target: ARF6 (Homo sapiens, UniProt P62330); details: cited from earlier work
# Sequence of ARF6 (P62330 whole entry, species assumed): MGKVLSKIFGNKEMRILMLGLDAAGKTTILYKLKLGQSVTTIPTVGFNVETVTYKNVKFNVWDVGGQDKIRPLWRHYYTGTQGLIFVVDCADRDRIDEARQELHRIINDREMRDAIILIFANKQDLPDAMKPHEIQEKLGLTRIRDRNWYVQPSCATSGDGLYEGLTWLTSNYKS
smiles,measurement,setting,value
CCCCCCCCc1ccc([C@H]2CCN[C@@H]2CO)cc1.Cl [compound 893],"Hepatic mitochondrial morphology (aspect ratio, roundness), HFD-fed mice","[1]; single oral dose 120 mg/kg at ZT8.5, HFD-fed, treatment-naive mice",increasing their tubularity (increased aspect ratio) and reducing their roundness to match controls fed standard chow
same,"Hepatic mitochondrial morphology, lean SD-fed mice","[1]; single oral dose 120 mg/kg, mice consuming the SD",did not significantly alter hepatic mitochondrial morphology
same,Effect on ARF6,[2],inactivates
